Laboratory results: patent US20230183243A1, “HETEROARYL DERIVATIVES AND PHARMACEUTICAL COMPOSITION COMPRISING SAME AS ACTIVE INGREDIENT” (VORONOI INC., priority 2019, published 2023)
Read-outs that look alike come from different tables or passages of the source.

Assays:
BxPC3 = test: Cell proliferation inhibition, carcinomas other than TNBC; format: cell-based
Experimental: (§1) To check an ability to inhibit the growth of (MDA-MB-231) cells in two triple-negative breast cancer cell lines, a test was performed, as follows. Cells were seeded in 180 μL of a culture broth at a density of 2,000 to 3,000 cells/well in a white clear bottom 96-well plate (Corning) according to the growth ability of each cell, and then cultured for 24 hours under conditions of 5% CO2 and 37° C. Thereafter, the compound was prepared by diluting a 10 mM stock solution three-fold with 100% DMSO at a total of 12 concentrations so that a peak concentration of the compound was in a range of 10 mM to 0.05 μM, and the diluted compound was then diluted in each cell culture medium so that a final concentration of the compound was in a range of 100 μM to 0.5 nM. 20 μL of a diluted solution diluted with a medium was added to the cell solution in which cells were seeded in the 96-well plate on the previous day so that a final concentration of the diluted solution was in a range of 10 μM to 0.05 nM. Each of the cells was cultured for 5 days. To check cell viability, a mixture provided in a CellTiter-Glo® Luminescent Cell Viability Assay Kit (Promega) was added to each of the cultured cell media, and cultured for another 10 minutes under a condition of 37° C. Then, a degree of luminescence (fluorescence) was measured. A degree of inhibition of the cell growth according to the treatment concentration of each of the compounds was calculated based on the fluorescence of the solvent control cells which were not treated with the compound. In this case, the concentration of each of the compounds inhibiting 50% of the cell growth was determined to be a GI50 (nM) value, and calculated using Prism (Version 7.01; GraphPad) software.
(§2) Next, the activities of the Example compounds against various types of carcinomas other than the TNBC were evaluated in a similar manner as described above. In the following table, the following active value range (GI50 (nM)) was used to evaluate cell proliferation inhibitory activity.

HCT116 = test: as above; format: cell-based
Experimental: as §1, §2

A549 = test: as above; format: cell-based
Experimental: as §1, §2

DU145 = test: as above; format: cell-based
Experimental: as §1, §2

TTK = biological target: T1, TTK (Homo sapiens, UniProt P33981); test: TTK enzyme activity, ADP-Glo kinase assay; format: biochemical; design: purchased SignalChem T20-10G; conditions: purified human TTK, ATP 10 μM, 25° C., 2 hours
T1 sequence (P33981 1-857): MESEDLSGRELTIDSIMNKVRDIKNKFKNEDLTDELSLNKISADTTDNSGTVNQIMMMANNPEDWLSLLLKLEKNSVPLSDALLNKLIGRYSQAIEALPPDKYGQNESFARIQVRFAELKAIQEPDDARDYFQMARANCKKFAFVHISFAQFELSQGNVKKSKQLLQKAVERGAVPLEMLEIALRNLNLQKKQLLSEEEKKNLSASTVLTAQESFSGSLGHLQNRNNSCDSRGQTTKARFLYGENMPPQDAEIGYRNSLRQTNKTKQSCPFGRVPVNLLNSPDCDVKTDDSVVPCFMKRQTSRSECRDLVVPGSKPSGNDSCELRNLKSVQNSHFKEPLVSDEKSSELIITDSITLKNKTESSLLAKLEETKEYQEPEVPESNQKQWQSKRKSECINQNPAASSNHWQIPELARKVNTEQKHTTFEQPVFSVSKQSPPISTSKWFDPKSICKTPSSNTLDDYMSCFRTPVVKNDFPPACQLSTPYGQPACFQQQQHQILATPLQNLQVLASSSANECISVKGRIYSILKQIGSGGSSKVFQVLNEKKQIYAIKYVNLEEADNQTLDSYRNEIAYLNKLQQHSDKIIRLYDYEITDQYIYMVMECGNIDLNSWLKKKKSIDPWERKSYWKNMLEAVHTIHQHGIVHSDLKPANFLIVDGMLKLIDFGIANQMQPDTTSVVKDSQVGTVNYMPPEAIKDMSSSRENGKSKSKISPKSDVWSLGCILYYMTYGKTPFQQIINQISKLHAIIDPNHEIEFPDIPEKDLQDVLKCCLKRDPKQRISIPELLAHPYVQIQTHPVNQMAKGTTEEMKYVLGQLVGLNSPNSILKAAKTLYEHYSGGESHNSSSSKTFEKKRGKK
How it was run: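 Purified human TTK (25 ng) incubated with 10 μM ATP and substrate (0.2 μg) for 2 h at 25 °C in Tris-HCl pH 7.4, MgCl2, BSA, DTT buffer. ADP formation read by ADP-Glo; inhibition calculated against untreated solvent control.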

MDA-MB-231 cells = test: Inhibition of proliferation of triple-negative breast cancer cells, CellTiter-Glo; format: cell-based; conditions: Homo sapiens, 120 h; MDA-MB-231, cultured for 5 days
How it was run: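 MDA-MB-231 cells pre-cultured 24 h (5% CO2, 37 °C), then exposed to compound for 5 days at 12 three-fold dilutions, final 10 μM to 0.05 nM. Viability read by CellTiter-Glo luminescence after 10 min at 37 °C; growth inhibition calculated relative to untreated solvent-control cells.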

SHP-77 = test: Inhibition of proliferation of small cell lung cancer cells, CellTiter-Glo; format: cell-based; conditions: Homo sapiens, SHP77, 120 h; SHP-77, cultured for 5 days
How it was run: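 SHP-77 cells at 2,000–3,000 cells/well, cultured 24 h at 37° C, 5% CO2, then given 12 threefold compound dilutions, final 10 μM to 0.05 nM, for 5 days. Viability by CellTiter-Glo luminescence relative to solvent control. GI50 from concentration–response.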

Row | SMILES | GI50 (BxPC3; Homo sapiens, BXPC-3) [nM] | GI50 (HCT116; Homo sapiens, HCT-116) [nM] | GI50 (A549; Homo sapiens) [nM] | GI50 (DU145; Homo sapiens, DU-145) [nM] | IC50 (TTK) [nM] | GI50 (MDA-MB-231 cells) [nM] | GI50 (BxPC3; BxPC3) [nM] | GI50 (HCT116; HCT116) [nM] | GI50 (A549) [nM] | GI50 (DU145; DU145) [nM] | GI50 (SHP-77) [nM]
1 | COc1cc(N2CCCC2=O)ccc1Nc1cc(NC2CCCC2)c2c(C#N)c[nH]c2n1 [Example 63, 4-(cyclopentylamino)-6-((2-methoxy-4-(2-oxopyrrolidin-1-yl)phenyl)amino)-1H-pyrrolo[2,3-b] pyridine-3-carbonitrile] | < 100 | < 100 | < 100 | < 100 | < 50 | 100 to 1000 |  |  |  |  | 
2 | COc1cc(N2CCCC2=O)ccc1Nc1cc(NC2CCCCC2)c2c(C(F)(F)F)c[nH]c2n1 [Example 62, 1-(4-((4-(cyclohexylamino)-3-(trifluoromethyl)-1H-pyrrolo[2,3-b]pyridin-6-yl)amino)-3-methoxyphenyl) pyrrolidin-2-one] | 100 to 1000 | 100 to 1000 | 100 to 1000 | 100 to 1000 |  |  |  |  |  |  | 
3 | COc1cc(N2CCCC2=O)ccc1Nc1nc(NC2CCCC2)c2c(C(F)(F)F)c[nH]c2n1 [Example 52] | 100 to 1000 | 100 to 1000 | 100 to 1000 | 100 to 1000 |  |  |  |  |  |  | 
4 | COc1cc(N2CCCC2=O)ccc1Nc1nc(NC2CCCC2)c2c(C#N)c[nH]c2n1 [Example 55, 4-(cyclopentylamino)-2-((2-methoxy-4-(2-oxopyrrolidin-1-yl)phenyl)amino)-7H-pyrrolo[2,3-d] pyrimidine-5-carbonitrile] | < 100 | < 100 | < 100 | < 100 | < 50 | < 100 |  |  |  |  | 
5 | COc1cc(N2CCCC2=O)ccc1Nc1nc(NC2CCCCC2)c2c(C(F)(F)F)c[nH]c2n1 [Example 53, 1-(4-((4-(cyclohexylamino)-5-(trifluoromethy1)-7H-pyrrolo[2,3-d]pyrimidin-2-yl)amino)-3-methoxyphenyl) pyrrolidin-2-one] | 100 to 1000 | 100 to 1000 | 100 to 1000 | 100 to 1000 | < 50 | 100 to 1000 |  |  |  |  | 
6 | CNc1nc(Nc2ccc(N3CCCC3=O)cc2OC)nc2[nH]cc(C#N)c12 [Example 54, 2-((2-methoxy-4-(2-oxopyrrolidin-1-yl)phenyl)amino)-4-(methylamino)-7H-pyrrolo[2,3-d] pyrimidine-5-carbonitrile] | 100 to 1000 | 100 to 1000 | 100 to 1000 | 100 to 1000 | 50 to 200 | 100 to 1000 |  |  |  |  | 
7 | COc1cc(N2CCCC2=O)ccc1Nc1nc(NC2CCCCC2)c2cc[nH]c2n1 [Example 48] |  |  |  |  |  |  | < 100 | < 100 | < 100 | < 100 | 
8 | COc1cc(N2CCCC2=O)ccc1Nc1nc(NC2CCCC2)c2cc[nH]c2n1 [Example 47, 1-(4-((4-(cyclopentylamino)-7H-pyrrolo[2,3-d]pyrimidin-2-yl)amino)-3-methoxyphenyl) pyrrolidin-2-one] | < 100 | < 100 | < 100 | < 100 |  |  |  |  |  |  | 
9 | COc1cc(N2CCCC2=O)ccc1Nc1nc(NC2CCCCC2)c2c(C#N)c[nH]c2n1 [Example 56, 4-(cyclohexylamino)-2-((2-methoxy-4-(2-oxopyrrolidin-1-yl)phenyl)amino)-7H-pyrrolo[2,3-d] pyrimidine-5-carbonitrile] | < 100 | < 100 | < 100 | < 100 | < 50 | < 100 |  |  |  |  | < 100
